The subject of this assay is Patients with allergic conjunctivitis. In words: Antigen instillation into the eye of patients with allergic conjunctivitis; itchiness of the eye scored in 9 levels, improvement rate versus base line. Type of assay: in vivo, human. To be noted: for improvement (%) of group with pre-administration: once a day for one week, antigen given 16 hr after last instillation; for improvement (%) of group with pre-administration / improvement (%) of group without pre-administration: itchiness 3 min later, proportion of patients with at least 1 point lower itchiness than base line; for improvement (%) of group without pre-administration: single instillation, antigen given 8 hr after instillation. Here is the method: Patients with allergic conjunctivitis (3 groups, 30 patients per group) were instilled with an antigen into the eye. Three minutes later, itchiness of the eye was evaluated in 9 levels (0, 0.5, 1, 1.5, 2, 2.5, 3, 3.5, 4), and the average value (base line group) of itchiness was determined. A specific antigen was determined for each patient. […] At least one week was allowed to lapse from the test of Method 1, and FK506 eye drop (suspension) [0.03%, 0.06% or 0.1%] was instilled into the eye of the patients. At 8 hr after the instillation of the eye drop, the antigen was given. Three minutes later, itchiness of the eye was evaluated in the same manner as in Method 1, and the average value (without pre-administration) of itchiness was determined. […] At least one week was allowed to lapse from the test of Method 2, and FK506 eye drop was instilled into the eye of the patients once a day for one week. At 16 hr after the last instillation of the eye drop, the antigen was given. Three minutes later, itchiness of the eye was evaluated in the same manner as in Method 1, and the average value (with pre-administration) of itchiness was determined.

Structures are written as SMILES.

Turning to `C=CC[C@@H]1/C=C(\C)C[C@H](C)C[C@H](OC)[C@H]2O[C@@](O)(C(=O)C(=O)N3CCCC[C@H]3C(=O)O[C@H](/C(C)=C/[C@@H]3CC[C@@H](O)[C@H](OC)C3)[C@H](C)[C@@H](O)CC1=O)[C@H](C)C[C@@H]2OC` [FK506, 17-allyl-1,14-dihydroxy-12-[2-(4-hydroxy-3-methoxycyclohexyl)-1-methylvinyl]-23,25-dimethoxy-13,19,21,27-tetramethyl-11,28-dioxa-4-azatricyclo-[22.3.1.0^4,9]octacos-18-ene-2,3,10,16-tetraone], where the note is “0.1% concentration groups”, the “improvement rate of the group with pre-administration after 16 hr compared with the group without pre-administration after 8 hr” value is given as “markedly higher”. In addition, the “improvement (%) of group with pre-administration” value is reported as 61.54% (FK506 eye drop 0.03%), 65.52% (FK506 eye drop 0.06%) and 72.41% (FK506 eye drop 0.1%). The “improvement (%) of group without pre-administration” value reads like this: (FK506 eye drop (suspension) 0.03%) 25.93%; (FK506 eye drop (suspension) 0.06%) 40.00%; (FK506 eye drop (suspension) 0.1%) 56.67%. The “improvement effect on the itchiness by setting a leading period for pre-administration” value (with versus without pre-administration, all concentrations) is recorded as “strikingly enhanced”.
